Test results: patent US12522588B2, “Herbicidal compounds” (SYNGENTA CROP PROTECTION AG, priority 2020, dated 2026)

Assays:
Format in all cases: in vivo
[1] = test system: Ipomoea hederacea (IPOHE); test: Post-emergence test, glasshouse; details: 250 g/ha, evaluated after 13 days, Table B1
Method: (§1) Seeds of a variety of test species are sown in standard soil in pots Amaranthus retoflexus (AMARE), Abutilon theophrasti (ABUTH), Setaria faberi (SETFA), Echinochloa crus-galli (ECHCG), Ipomoea hederacea (IPOHE)). After cultivation for one day (pre-emergence) or after 8 days cultivation (post-emergence) under controlled conditions in a glasshouse (at 24/16° C., day/night; 14 hours light; 65% humidity), the plants are sprayed with an aqueous spray solution derived from the formulation of the technical active ingredient in acetone/water (50:50) solution containing 0.5% Tween 20 (polyoxyethelyene sorbitan monolaurate, CAS RN 9005-64-5). Compounds are applied at 250 g/ha unless otherwise stated. The test plants are then grown in a glasshouse under controlled conditions in a glasshouse (at 24/16° C., day/night; 14 hours light; 65% humidity) and watered twice daily. After 13 days for pre and post-emergence, the test is evaluated for the percentage damage caused to the plant. The biological activities are shown in the following table on a five-point scale (5=81-100%; 4=61-80%; 3=41-60%; 2=21-40%; 1=0-20%).

[2] = test system: Amaranthus retoflexus (AMARE); test: Post-emergence test, glasshouse; details: 250 g/ha, evaluated after 13 days, Table B1
Method: as §1

Setaria faberi (SETFA) [3] = test: Post-emergence test, glasshouse; details: 250 g/ha, evaluated after 13 days, Table B1
Method: as §1

[4] = test system: Echinochloa crus-galli (ECHCG); test: Post-emergence test, glasshouse; details: 250 g/ha, evaluated after 13 days, Table B1
Method: as §1

[5] = test system: Ipomoea hederacea (IPOHE); test: Pre-emergence test, glasshouse; details: 250 g/ha, evaluated after 13 days, Table B2
Method: as §1

[6] = test system: Amaranthus retoflexus (AMARE); test: Pre-emergence test, glasshouse; details: 250 g/ha, evaluated after 13 days, Table B2
Method: as §1

Setaria faberi (SETFA) [7] = test: Pre-emergence test, glasshouse; details: 250 g/ha, evaluated after 13 days, Table B2
Method: as §1

[8] = test system: Echinochloa crus-galli (ECHCG); test: Pre-emergence test, glasshouse; details: 250 g/ha, evaluated after 13 days, Table B2
Method: as §1

## Cc1cnc(Oc2cc(C(F)(F)F)nn2-c2ccc(C(F)(F)F)cc2)nc1 [Compound 1.020, 5-methyl-2-[5-(trifluoromethyl)-2-[4-(trifluoromethyl)phenyl]pyrazol-3-yl]oxy-pyrimidine]
[1]
  percentage damage caused to the plant, IPOHE: 3 (3=41-60%)
[2]
  percentage damage caused to the plant, AMARE: 5 (5=81-100%)
Setaria faberi (SETFA) [3]
  percentage damage caused to the plant, SETFA: 4 (4=61-80%)
[4]
  percentage damage caused to the plant, ECHCG: 4 (4=61-80%)
[5]
  percentage damage caused to the plant, IPOHE: 1 (1=0-20%)
[6]
  percentage damage caused to the plant, AMARE: 5 (5=81-100%)
Setaria faberi (SETFA) [7]
  percentage damage caused to the plant, SETFA: 5 (5=81-100%)
[8]
  percentage damage caused to the plant, ECHCG: 5 (5=81-100%)

## Fc1cnc(Oc2cc(C(F)(F)F)nn2-c2ccc(C(F)(F)F)cc2)nc1 [Compound 1.021]
[1]
  percentage damage caused to the plant, IPOHE: 4 (4=61-80%)
[2]
  percentage damage caused to the plant, AMARE: 4 (4=61-80%)
Setaria faberi (SETFA) [3]
  percentage damage caused to the plant, SETFA: 4 (4=61-80%)
[4]
  percentage damage caused to the plant, ECHCG: 5 (5=81-100%)
[5]
  percentage damage caused to the plant, IPOHE: 2 (2=21-40%)
[6]
  percentage damage caused to the plant, AMARE: 5 (5=81-100%)
Setaria faberi (SETFA) [7]
  percentage damage caused to the plant, SETFA: 5 (5=81-100%)
[8]
  percentage damage caused to the plant, ECHCG: 5 (5=81-100%)

## Cc1ncc(-n2nc(C(F)(F)F)cc2Oc2ncc(Cl)cn2)cn1 [Compound 1.022, 5-chloro-2-[2-(2-methylpyrimidin-5-yl)-5-(trifluoromethyl)pyrazol-3-yl]oxy-pyrimidine]
[1]
  percentage damage caused to the plant, IPOHE: 1 (1=0-20%)
[2]
  percentage damage caused to the plant, AMARE: 5 (5=81-100%)
Setaria faberi (SETFA) [3]
  percentage damage caused to the plant, SETFA: 4 (4=61-80%)
[4]
  percentage damage caused to the plant, ECHCG: 4 (4=61-80%)
[5]
  percentage damage caused to the plant, IPOHE: 1 (1=0-20%)
[6]
  percentage damage caused to the plant, AMARE: 5 (5=81-100%)
Setaria faberi (SETFA) [7]
  percentage damage caused to the plant, SETFA: 5 (5=81-100%)
[8]
  percentage damage caused to the plant, ECHCG: 4 (4=61-80%)

## FC(F)Oc1ccc(-n2nc(C(F)(F)F)cc2Oc2ncc(Cl)cn2)cc1 [Compound 1.028]
[1]
  percentage damage caused to the plant, IPOHE: 1 (1=0-20%)
[2]
  percentage damage caused to the plant, AMARE: 4 (4=61-80%)
Setaria faberi (SETFA) [3]
  percentage damage caused to the plant, SETFA: 2 (2=21-40%)
[4]
  percentage damage caused to the plant, ECHCG: 2 (2=21-40%)
[5]
  percentage damage caused to the plant, IPOHE: 1 (1=0-20%)
[6]
  percentage damage caused to the plant, AMARE: 2 (2=21-40%)
Setaria faberi (SETFA) [7]
  percentage damage caused to the plant, SETFA: 2 (2=21-40%)
[8]
  percentage damage caused to the plant, ECHCG: 1 (1=0-20%)

## Cc1ccc(-n2nc(C(F)(F)F)cc2Oc2ncc(Cl)cn2)cc1 [Compound 1.029]
[1]
  percentage damage caused to the plant, IPOHE: 2 (2=21-40%)
[2]
  percentage damage caused to the plant, AMARE: 4 (4=61-80%)
Setaria faberi (SETFA) [3]
  percentage damage caused to the plant, SETFA: 2 (2=21-40%)
[4]
  percentage damage caused to the plant, ECHCG: 2 (2=21-40%)
[5]
  percentage damage caused to the plant, IPOHE: 1 (1=0-20%)
[6]
  percentage damage caused to the plant, AMARE: 3 (3=41-60%)
Setaria faberi (SETFA) [7]
  percentage damage caused to the plant, SETFA: 4 (4=61-80%)
[8]
  percentage damage caused to the plant, ECHCG: 4 (4=61-80%)

## Fc1ccccc1-n1nc(C(F)(F)F)cc1Oc1ncc(Cl)cn1 [Compound 1.033]
[1]
  percentage damage caused to the plant, IPOHE: 1 (1=0-20%)
[2]
  percentage damage caused to the plant, AMARE: 3 (3=41-60%)
Setaria faberi (SETFA) [3]
  percentage damage caused to the plant, SETFA: 1 (1=0-20%)
[4]
  percentage damage caused to the plant, ECHCG: 1 (1=0-20%)
[5]
  percentage damage caused to the plant, IPOHE: 1 (1=0-20%)
[6]
  percentage damage caused to the plant, AMARE: 2 (2=21-40%)
Setaria faberi (SETFA) [7]
  percentage damage caused to the plant, SETFA: 1 (1=0-20%)
[8]
  percentage damage caused to the plant, ECHCG: 1 (1=0-20%)

## FC(F)(F)c1ccc(-n2nc(C(F)(F)F)cc2Oc2ncc(Br)cn2)cc1 [Compound 1.036, 5-bromo-2-[5-(trifluoromethyl)-2-[4-(trifluoromethyl)phenyl]pyrazol-3-yl]oxy-pyrimidine]
[1]
  percentage damage caused to the plant, IPOHE: 2 (2=21-40%)
[2]
  percentage damage caused to the plant, AMARE: 4 (4=61-80%)
Setaria faberi (SETFA) [3]
  percentage damage caused to the plant, SETFA: 1 (1=0-20%)
[4]
  percentage damage caused to the plant, ECHCG: 1 (1=0-20%)
[5]
  percentage damage caused to the plant, IPOHE: 1 (1=0-20%)
[6]
  percentage damage caused to the plant, AMARE: 3 (3=41-60%)
Setaria faberi (SETFA) [7]
  percentage damage caused to the plant, SETFA: 4 (4=61-80%)
[8]
  percentage damage caused to the plant, ECHCG: 4 (4=61-80%)
